Molecular target: not listed separately
Assay: Inhibition of [125I]asialoorosomucoid binding to rabbit hepatic ASGPR1
Design: species or system Oryctolagus cuniculus

SMILES | IC50
OC[C@H]1O[C@@H](O)[C@H](O)[C@@H](O)[C@@H]1O [beta-D-Glucose] | 60 mM
OC[C@H]1O[C@@H](O)[C@H](O)[C@@H](O)[C@H]1O [b-D-GALACTOSE] | 1.7 mM

Molecular target: T1, Asialoglycoprotein receptor 1 (Homo sapiens) (UniProt P07306)
T1 sequence (whole entry): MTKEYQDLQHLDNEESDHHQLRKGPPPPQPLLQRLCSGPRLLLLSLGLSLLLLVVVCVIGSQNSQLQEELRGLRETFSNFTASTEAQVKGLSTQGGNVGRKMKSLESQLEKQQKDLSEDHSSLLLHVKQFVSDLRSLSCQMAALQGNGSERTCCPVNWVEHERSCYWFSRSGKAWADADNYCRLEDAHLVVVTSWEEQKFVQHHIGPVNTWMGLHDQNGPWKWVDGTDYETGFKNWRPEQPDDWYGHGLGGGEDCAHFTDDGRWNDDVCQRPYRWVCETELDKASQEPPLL
Assay: Inhibition of D-GalNAc-PAA binding to human recombinant ASGPR1 carbohydrate recognition domain expressed in Escherichia coli AD494 by competitive solid-phase binding assay relative to D-GalNAc

SMILES | Ratio IC50
O=S(=O)(Nc1ccc(OCc2cn([C@H]3CO[C@H](CO)[C@H](O)[C@@H]3O)nn2)cc1)C(F)(F)F | Insoluble
OC[C@H]1OC[C@H](n2cc(COc3c(F)c(F)c(F)c(F)c3F)nn2)[C@@H](O)[C@H]1O | 1.4
O=[N+]([O-])c1ccc(OCc2cn([C@H]3CO[C@H](CO)[C@H](O)[C@@H]3O)nn2)cc1 | 0.8
CC(=O)N[C@H]1C(O)O[C@H](CO)[C@H](O)[C@@H]1O (some centres not stated) | 1
N#Cc1ccc(OCc2cn([C@H]3CO[C@H](CO)[C@H](O)[C@@H]3O)nn2)cc1 | 0.5
OC[C@H]1OC[C@H](n2cc(COc3ccccc3)nn2)[C@@H](O)[C@H]1O | 1.1
O=C(O)c1ccc(OCc2cn([C@H]3CO[C@H](CO)[C@H](O)[C@@H]3O)nn2)cc1 | 8.7
CN1CCN(c2ccc(OCc3cn([C@H]4CO[C@H](CO)[C@H](O)[C@@H]4O)nn3)cc2)CC1 | 0.9
[N-]=[N+]=N[C@H]1CO[C@H](CO)[C@H](O)[C@@H]1O | 13.7

Molecular target: T1, Asialoglycoprotein receptor 1 (Homo sapiens)
Assay: Inhibition of D-GalNAc binding to human recombinant ASGPR1 carbohydrate recognition domain expressed in Escherichia coli AD494 by competitive NMR binding assay relative to D-GalNAc

SMILES | relative binding affinity (RBA)
N#Cc1ccc(OCc2cn([C@H]3CO[C@H](CO)[C@H](O)[C@@H]3O)nn2)cc1 | 1.9

— ChEMBL document CHEMBL1152614, “Design, synthesis and evaluation of monovalent ligands for the asialoglycoprotein receptor (ASGP-R)” (Bioorg Med Chem, 2009)
